Laboratory results published in publication PMC8815882, “Screening the pandemic response box identified benzimidazole carbamates, Olorofim and ravuconazole as promising drug candidates for the treatment of eumycetoma” (PLoS Neglected Tropical Diseases, 2022).
Where two headings read alike, the source gives them in different places.

Test system: M. mycetomatis genome strain MM55
Assay: CLSI M38-A2 based in vitro susceptibility screening (XTT or resazurin), growth at fixed concentration
Type: cell-based, Madurella mycetomatis
Conditions: Madurella mycetomatis
[1] = mean, read-out: Percentage survival at 25um, 25 uM mean
[2] = replicate A, read-out: Percentage survival at 25um, 25 um A
[3] = replicate B, read-out: Percentage survival at 25um, 25 uM B
[4] = replicate C, read-out: Percentage survival at 25um, 25 uM C
[5] = mean, read-out: Percentage survival at 100um, 100 uM mean
[6] = replicate (first column), read-out: Percentage survival at 100um, 100 uM A
[7] = replicate (second column), read-out: Percentage survival at 100um, 100 uM A
[8] = replicate (third column), read-out: Percentage survival at 100um, 100 uM A
[9] = mean of three replicates, read-out: Percentage survival at 25um, 25 uM mean
[10] = first replicate column, read-out: Percentage survival at 100um, 100 uM A
[11] = mean of three replicates, read-out: Percentage survival at 100um, 100 uM mean
[12] = second replicate column, read-out: Percentage survival at 100um, 100 uM A
[13] = third replicate column, read-out: Percentage survival at 100um, 100 uM A
[14] = mean of replicates, MM55, read-out: Percentage survival at 25um, 25 uM mean
[15] = replicate A, MM55, read-out: Percentage survival at 25um, 25 um A
[16] = replicate B, MM55, read-out: Percentage survival at 25um, 25 uM B
[17] = replicate C, MM55, read-out: Percentage survival at 25um, 25 uM C
[18] = mean of replicates, MM55, read-out: Percentage survival at 100um, 100 uM mean
[19] = replicate 1, MM55, read-out: Percentage survival at 100um, 100 uM A
[20] = replicate 2, MM55, read-out: Percentage survival at 100um, 100 uM A
[21] = replicate 3, MM55, read-out: Percentage survival at 100um, 100 uM A

Row | SMILES | activity at 25 µM [1] | activity at 25 µM [2] | activity at 25 µM [3] | activity at 25 µM [4] | activity at 100 µM [5] | activity at 100 µM [6] | activity at 100 µM [7] | activity at 100 µM [8] | activity at 25 µM [9] | activity at 100 µM [10] | activity at 100 µM [11] | activity at 100 µM [12] | activity at 100 µM [13] | activity at 25 µM [14] | activity at 25 µM [15] | activity at 25 µM [16] | activity at 25 µM [17] | activity at 100 µM [18] | activity at 100 µM [19] | activity at 100 µM [20] | other results
1 | COc1cc(NC(=O)CN2C(=O)NC(c3ccccc3)(c3ccccc3)C2=O)cc(OC)c1 [MMV1578572] | 72% | 95.2% | 47.1% | 73.6% | 79.3% | 83.4% | 65.2% | 89.3% | – | – | – | – | – | – | – | – | – | – | – | – | –
2 | O=C(N[C@H](Cc1cccc2ccccc12)C(=O)NCCc1c[nH]cn1)C1Cc2ccccc2C1 [MMV1782109] | 80.7% | 88.1% | 81.3% | 72.6% | 67% | 69.9% | 67.6% | 63.4% | – | – | – | – | – | – | – | – | – | – | – | – | –
3 | Nc1nc(O)c2ncn(COCCO)c2n1 [MMV001961] | – | 88.7% | 94.5% | 87.8% | – | – | – | – | 90.3% | 88.4% | 84.1% | 78.9% | 85% | – | – | – | – | – | – | – | –
4 | CCCCN1C[C@H](O)[C@@H](O)[C@H](O)[C@H]1CO [MMV1782098] | – | – | – | – | – | – | – | – | – | – | – | – | – | 95.7% | 96.4% | 111% | 79.8% | 68% | 94.4% | 27.4% | activity at 100 µM [21]: 82.2%
5 | CCOC(=O)N1CCN(c2ccc(Cl)cc2)CC1 [MMV1578898] | – | 91.8% | 91.8% | 66.9% | – | – | – | – | – | – | – | – | – | – | – | – | – | – | – | – | activity at 25 µM (mean of replicates, read-out: Percentage survival at 25um, 25 uM mean): 83.5%; activity at 100 µM (mean of replicates, read-out: Percentage survival at 100um, 100 uM mean): 47.7%; activity at 100 µM (replicate 1, read-out: Percentage survival at 100um, 100 uM A): 38.1%; activity at 100 µM (replicate 2, read-out: Percentage survival at 100um, 100 uM A): 63.1%; activity at 100 µM (replicate 3, read-out: Percentage survival at 100um, 100 uM A): 42%
6 | CC(C)Nc1nc2cc(Cl)c(Cl)cc2n1[C@H]1O[C@@H](CO)[C@H](O)[C@@H]1O [MMV1593521] | – | – | – | – | – | – | – | – | – | – | – | – | – | 93.6% | 104% | 89.6% | 87% | 81.8% | 90.8% | 82% | activity at 100 µM [21]: 72.5%
7 | COc1ccc(NS(=O)(=O)c2ccc(Cl)s2)cn1 [MMV1580499] | – | 77.6% | 91.2% | 86.3% | – | – | – | – | 85% | 64.6% | 61.8% | 69.9% | 50.9% | – | – | – | – | – | – | – | –
8 | c1ccc(-c2nnc3c4ccccc4c(N4CCNCC4)nn23)cc1 [MMV1581551] | 84.6% | 93.2% | 85.9% | 74.8% | 37% | 10.9% | 52.3% | 47.9% | – | – | – | – | – | – | – | – | – | – | – | – | –
9 | CC(C)C(=O)N[C@H]1[C@H]([C@H](O)[C@H](O)CO)OC(C(=O)O)=C[C@@H]1N=[N+]=[N-] [MMV1782111] | – | – | – | – | – | – | – | – | – | – | – | – | – | 95.4% | 71.1% | 133% | 82.3% | 57.6% | 71% | 27.4% | activity at 100 µM [21]: 74.4%
10 | Nc1nc2c(ncn2[C@@H]2O[C@H](CO)[C@@H](O)[C@H]2F)c(=O)[nH]1 [MMV1633677] | – | 76.3% | 91.2% | 88.1% | – | – | – | – | 85.2% | 85.8% | 83.6% | 80.2% | 84.7% | – | – | – | – | – | – | – | –
